The record followed here is patent publication US20130089641A1.

The nature of data set [1]: first experiment: in vitro digestion and dialysis of soymilk with ascorbic acid or calcium ascorbate, releasable iron. It is filed as in vitro ADME. From the text: For improving that, a first experiment in the present invention is done, that is, to respectively add the ascorbic acid and the calcium ascorbate into the soymilk and determine the concentration of the releasable iron thereof. Please refer to following Table (1), which is a statistical table of the releasable iron concentration in the soymilk.

Data set [2] is described as follows: sixth experiment: releasable iron in soymilk with 30 ppm ferrous gluconate and sodium isoascorbate additive. In kind it is in vitro ADME. The following applies: soymilk with 30 ppm ferrous gluconate. From the text:
However, everyone knows that vitamin C includes a stereoisomer called isoascorbic acid, and the physical and chemical properties of the isoascorbic acid are similar to the vitamin C.

Data set [3] can be described thus: fifth experiment: releasable iron in soymilk with 30 ppm ferrous gluconate and VC, NaVC, KVC or CaVC additive. It is filed as in vitro ADME. The following applies: for average iron release rate / average relative release rate: soymilk with 30 ppm ferrous gluconate.
Excerpt: (§1) In which, “in vitro digestion and dialysis” is used in the experiments for determining the releasable iron in human body after the foods are digested.
Data set [4] can be described thus: second experiment: releasable iron in soymilk with iron salts added by concentration gradients.
Excerpt: as §1
Setting [5] is: sodium isoascorbate 28.6 mg/100 mL.
[6] abbreviates: sodium isoascorbate 57.1 mg/100 mL.
Where [7] appears, read: sodium isoascorbate 85.7 mg/100 mL.
Setting [8] is: sodium isoascorbate 114.3 mg/100 mL.
[9] abbreviates: sodium isoascorbate 142.9 mg/100 mL.
[10] abbreviates: sodium isoascorbate 171.4 mg/100 mL.
Setting [11] is: sodium isoascorbate 200.0 mg/100 mL.
[12] abbreviates: sodium isoascorbate 228.6 mg/100 mL.
The mark [13] stands for this setting: sodium isoascorbate 257.1 mg/100 mL.
The mark [14] stands for this setting: sodium isoascorbate 285.7 mg/100 mL.
The mark [15] stands for this setting: sodium isoascorbate 314.3 mg/100 mL.
[16] abbreviates: sodium isoascorbate 342.9 mg/100 mL.
The mark [17] stands for this setting: sodium isoascorbate 371.4 mg/100 mL.
Where [18] appears, read: sodium isoascorbate 400.0 mg/100 mL.
Setting [19] is: sodium isoascorbate 428.6 mg/100 mL.
Where [20] appears, read: sodium isoascorbate 457.1 mg/100 mL.
The mark [21] stands for this setting: sodium isoascorbate 485.7 mg/100 mL.
[22] abbreviates: sodium isoascorbate 514.3 mg/100 mL.
The mark [23] stands for this setting: sodium isoascorbate 542.9 mg/100 mL.
[24] abbreviates: sodium isoascorbate 571.4 mg/100 mL.
Setting [25] is: soymilk, equivalent additive dosage 175 mg/100 mL.
The mark [26] stands for this setting: average additive dosage of ascorbic acid ions 25 ppm.
Setting [27] is: average additive dosage of ascorbic acid ions 50 ppm.
The mark [28] stands for this setting: average additive dosage of ascorbic acid ions 75 ppm.
Where [29] appears, read: average additive dosage of ascorbic acid ions 100 ppm.
Setting [30] is: average additive dosage of ascorbic acid ions 125 ppm.
Where [31] appears, read: average additive dosage of ascorbic acid ions 150 ppm.
[32] abbreviates: average additive dosage of ascorbic acid ions 175 ppm.
Setting [33] is: average additive dosage of ascorbic acid ions 200 ppm.
Where [34] appears, read: average additive dosage of ascorbic acid ions 225 ppm.
The mark [35] stands for this setting: average additive dosage of ascorbic acid ions 250 ppm.
Where [36] appears, read: average additive dosage of ascorbic acid ions 275 ppm.
[37] abbreviates: average additive dosage of ascorbic acid ions 300 ppm.
Setting [38] is: average additive dosage of ascorbic acid ions 325 ppm.
The mark [39] stands for this setting: average additive dosage of ascorbic acid ions 350 ppm.
Where [40] appears, read: average additive dosage of ascorbic acid ions 375 ppm.
The mark [41] stands for this setting: average additive dosage of ascorbic acid ions 400 ppm.
The mark [42] stands for this setting: average additive dosage of ascorbic acid ions 425 ppm.
The mark [43] stands for this setting: average additive dosage of ascorbic acid ions 450 ppm.
Where [44] appears, read: average additive dosage of ascorbic acid ions 475 ppm.
Where [45] appears, read: average additive dosage of ascorbic acid ions 500 ppm.
The mark [46] stands for this setting: soymilk with 30 ppm iron as ferrous gluconate.

For `O=C1O[C@H]([C@@H](O)CO)C(O)=C1O` [VC, ascorbic acid], in data set [1] (75 mg/100 mL), the iron release rate is listed as 51.75%, the “relative release rate” value came out at 102.7% and the releasable iron stood at 2.07 ppm. In data set [1] (175 mg/100 mL), the iron release rate is given as 78.75%, the “relative release rate” value is recorded as 156.28% and the releasable iron amounted to 3.15 ppm.

As to `O=C1O[C@H]([C@H](O)CO)C([O-])=C1O.[Na+]` [sodium isoascorbate], the iron release rate in data set [2] (setting [5]) is 23.37%; in data set [2] (setting [6]), 28.20%; in data set [2] (setting [7]), 33.67%; in data set [2] (setting [8]), 34.23%; in data set [2] (setting [9]) it was 36.17%; in data set [2] (setting [10]), 38.73%. Moreover, the iron release rate in data set [2] (setting [11]) was 41.53%; in data set [2] (setting [12]), 41.90%; in data set [2] (setting [13]), 43.20%; in data set [2] (setting [14]) it was 45.80%; in data set [2] (setting [15]), 46.30%; in data set [2] (setting [16]), 47.77%. Further, the iron release rate in data set [2] (setting [17]) came out at 48.60%; in data set [2] (setting [18]), 48.73%; in data set [2] (setting [19]), 49.30%; in data set [2] (setting [20]) it was 49.23%; in data set [2] (setting [21]), 49.60%; in data set [2] (setting [22]) it was 49.90%. In addition, the iron release rate in data set [2] (setting [23]) is 50.90%; in data set [2] (setting [24]) it was 50.37%. Also, the relative release rate in data set [2] (setting [5]) is given as 46.37%; in data set [2] (setting [6]) it was 55.96%; in data set [2] (setting [7]) it was 66.81%; in data set [2] (setting [8]) it was 67.94%; in data set [2] (setting [9]), 71.77%; in data set [2] (setting [10]), 76.87%. For the same compound, the relative release rate is recorded as 82.42% in data set [2] (setting [11]); 83.15% in data set [2] (setting [12]); 85.73% in data set [2] (setting [13]); 90.89% in data set [2] (setting [14]); 91.88% in data set [2] (setting [15]); 94.79% in data set [2] (setting [16]). Also, the relative release rate in data set [2] (setting [17]) stood at 96.45%; in data set [2] (setting [18]), 96.71%; in data set [2] (setting [19]), 97.84%; in data set [2] (setting [20]) it was 97.70%; in data set [2] (setting [21]) it was 98.43%; in data set [2] (setting [22]) it was 99.03%. Also, the values for the relative release rate in data set [2] (setting [23]) and in data set [2] (setting [24]) were 101.01% and 99.95%, respectively. In addition, the releasable iron concentration is listed as 7.01 ppm in data set [2] (setting [5]); 8.46 ppm in data set [2] (setting [6]); 10.10 ppm in data set [2] (setting [7]); 10.27 ppm in data set [2] (setting [8]); 10.85 ppm in data set [2] (setting [9]); 11.62 ppm in data set [2] (setting [10]). Also, the releasable iron concentration worked out at 12.46 ppm in data set [2] (setting [11]); 12.57 ppm in data set [2] (setting [12]); 12.96 ppm in data set [2] (setting [13]); 13.74 ppm in data set [2] (setting [14]); 13.89 ppm in data set [2] (setting [15]); 14.33 ppm in data set [2] (setting [16]). The releasable iron concentration was 14.58 ppm in data set [2] (setting [17]); 14.62 ppm in data set [2] (setting [18]); 14.79 ppm in data set [2] (setting [19]); 14.77 ppm in data set [2] (setting [20]); 14.88 ppm in data set [2] (setting [21]); 14.97 ppm in data set [2] (setting [22]). The releasable iron concentration was 15.27 ppm in data set [2] (setting [23]) and 15.11 ppm in data set [2] (setting [24]).

As to calcium ascorbate [CaVC], in data set [1] (setting [25]), the iron release rate was determined as 48.75% and the releasable iron came out at 1.95 ppm. The “relative release rate” value in data set [1] (soymilk, equivalent additive dosage 175 mg/100 mL, relative to ferrous sulfate aqueous solution) is given as 96.75%.

For `O=C1O[C@H]([C@@H](O)CO)C(O)=C1O` [ascorbic acid ions], the “average iron release rate” value is 16.90% in data set [3] (setting [26]); 23.17% in data set [3] (setting [27]); 27.88% in data set [3] (setting [28]); 32.08% in data set [3] (setting [29]); 33.35% in data set [3] (setting [30]); 34.92% in data set [3] (setting [31]). Further, the “average iron release rate” value in data set [3] (setting [32]) was determined as 35.85%; in data set [3] (setting [33]), 36.86%; in data set [3] (setting [34]) it was 38.23%; in data set [3] (setting [35]), 39.40%; in data set [3] (setting [36]), 40.57%; in data set [3] (setting [37]), 42.29%. Also, the “average iron release rate” value in data set [3] (setting [38]) worked out at 43.63%; in data set [3] (setting [39]) it was 44.67%; in data set [3] (setting [40]), 45.61%; in data set [3] (setting [41]), 46.28%; in data set [3] (setting [42]) it was 47.22%; in data set [3] (setting [43]), 47.86%. Also, the figures for the “average iron release rate” value in data set [3] (setting [44]) and in data set [3] (setting [45]) were 48.99% and 50.01%, respectively. For the same compound, the “average relative release rate” value in data set [3] (setting [26]) is recorded as 33.55%; in data set [3] (setting [27]), 45.97%; in data set [3] (setting [28]) it was 55.33%; in data set [3] (setting [29]), 63.67%; in data set [3] (setting [30]) it was 66.18%; in data set [3] (setting [31]) it was 69.30%. Also, the “average relative release rate” value in data set [3] (setting [32]) worked out at 71.14%; in data set [3] (setting [33]) it was 73.15%; in data set [3] (setting [34]) it was 75.86%; in data set [3] (setting [35]), 78.18%; in data set [3] (setting [36]), 80.51%; in data set [3] (setting [37]), 83.93%. Besides, the “average relative release rate” value turned out to be 86.59% in data set [3] (setting [38]); 88.66% in data set [3] (setting [39]); 90.52% in data set [3] (setting [40]); 91.85% in data set [3] (setting [41]); 93.72% in data set [3] (setting [42]); 94.99% in data set [3] (setting [43]). In addition, the “average relative release rate” value is 97.23% in data set [3] (setting [44]) and 99.24% in data set [3] (setting [45]).

As to `O=C1O[C@H]([C@H](O)CO)C(O)=C1O` [isoascorbic acid ions], the “release promoting rate for iron compared with ascorbic acid ions” value in data set [2] (sodium isoascorbate additive) was “almost the same”.

As to ferrous gluconate, in data set [3] (setting [46]), the “releasable iron concentration before adding the ascorbic acid iron” value is recorded as 2.08 ppm. In addition, in data set [3] (setting [46]), the “the most effective additive dosage for ascorbic acid iron” value stood at 50 mg/100 ml. Besides, in data set [3] (soymilk with 30 ppm iron as ferrous gluconate, after/before adding the ascorbic acid iron), the “release promoting rate of iron” value is 458%. Further, in data set [3] (soymilk with 30 ppm iron as ferrous gluconate, at the most effective additive dosage 50), the “releasable iron concentration after adding the ascorbic acid iron” value is on record as 9.53 ppm. The “concentration of releasable iron” value in data set [4] (additive dosage of iron 10 ppm) was found to be 1.61 ppm; in data set [4] (additive dosage of iron 20 ppm) it was 2.05 ppm; in data set [4] (additive dosage of iron 30 ppm) it was 2.08 ppm; in data set [4] (additive dosage of iron 40 ppm), 2.68 ppm; in data set [4] (additive dosage of iron 50 ppm), 3.15 ppm; in data set [4] (additive dosage of iron 60 ppm) it was 4.06 ppm. Further, the “concentration of releasable iron” value in data set [4] (additive dosage of iron 70 ppm) came out at 3.98 ppm; in data set [4] (additive dosage of iron 75 ppm), 3.87 ppm. Besides, in data set [4] (point where releasable iron starts to rise with additive dosage), the initially inhibiting concentration came to 30 ppm.
